# According to patent publication US20170050957A1, “4-AMINO-6-(HETEROCYCLIC)PICOLINATES AND 6-AMINO-2-(HETEROCYCLIC)PYRIMIDINE-4-CARBOXYLATES AND THEIR USE AS HERBICIDES” (Dow AgroSciences LLC, priority 2013, published 2017):
# Like-named read-outs stand apart in the source and are kept apart here.
# Columns and labels:
# [1] = system: Key Grass and Sedge Weeds as well as Grass Crops; test: Post-emergent Test II herbicidal activity (Table 16); type: in vivo; conditions: post-emergence, 336 h, 14 d; for pest or weed control at 35 g/ha: 35 g ai/ha; for pest or weed control at 70 g/ha: 70 g ai/ha; for pest or weed control at 140 g/ha: 140 g ai/ha
# Outline: (§1)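 Plants at first-second true leaf stage, grown 7-21 d in greenhouse (~15 h photoperiod, 23-29 °C day), were track-sprayed at 187 L/ha with compound in acetone/DMSO/water/isopropanol/crop oil/Triton X-155 at a high rate plus 1/2× to 1/16× dilutions. Injury scored visually after 14 d versus untreated plants, 0 (none) to 100% (complete kill).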
# undesirable vegetation = test: Herbicidal activity, comparison X is CF with X is CH; type: in vivo; conditions: 1.08 and 1.09 vs 1.21 and 1.22; 1.15 and 1.16 vs 1.23 and 1.24; A is A15
# [2] = system: Key Broadleaf Weed and Crop Species; test: Post-emergent Test II herbicidal activity (Table 15); type: in vivo; conditions: post-emergence, 336 h, 14 d; for pest or weed control at 35 g/ha: 35 g ai/ha; for pest or weed control at 70 g/ha: 70 g ai/ha; for pest or weed control at 140 g/ha: 140 g ai/ha
# Outline: as §1
# [3] = Cyperus esculentus, yellow nutsedge (Cyperus esculentus), read-out: Visual Growth Reduction (%) 14 Days After Application, CYPES
# [4] = Echinochloa crus-galli, barnyardgrass (Echinochloa crus-galli), read-out: Visual Growth Reduction (%) 14 Days After Application, ECHCG
# [5] = Oryza sativa, rice (Oryza sativa), read-out: Visual Growth Reduction (%) 14 Days After Application, ORYSA
# [6] = Setaria faberi, giant foxtail (Setaria faberi), read-out: Visual Growth Reduction (%) 14 Days After Application, SETFA
# [7] = Triticum aestivum, wheat, spring (Triticum aestivum), read-out: Visual Growth Reduction (%) 14 Days After Application, TRZAS
# [8] = Zea mays, maize, corn (Zea mays), read-out: Visual Growth Reduction (%) 14 Days After Application, ZEAMX
# [9] = Abutilon theophrasti, velvetleaf (Abutilon theophrasti), read-out: Visual Growth Reduction (%) 14 Days After Application, ABUTH
# [10] = Amaranthus retroflexus, redroot pigweed (Amaranthus retroflexus), read-out: Visual Growth Reduction (%) 14 Days After Application, AMARE
# [11] = Brassica napus, oilseed rape, canola (Brassica napus), read-out: Visual Growth Reduction (%) 14 Days After Application, BRSNN
# [12] = Chenopodium album, lambsquarters (Chenopodium album), read-out: Visual Growth Reduction (%) 14 Days After Application, CHEAL
# [13] = Euphorbia heterophylla, wild poinsettia (Euphorbia heterophylla), read-out: Visual Growth Reduction (%) 14 Days After Application, EPHHL
# [14] = Helianthus annuus, sunflower (Helianthus annuus), read-out: Visual Growth Reduction (%) 14 Days After Application, HELAN
SMILES,"pest or weed control at 35 g/ha [1, 3]","pest or weed control at 70 g/ha [1, 3]","pest or weed control at 140 g/ha [1, 3]","pest or weed control at 35 g/ha [1, 4]","pest or weed control at 70 g/ha [1, 4]","pest or weed control at 140 g/ha [1, 4]","pest or weed control at 35 g/ha [1, 5]","pest or weed control at 70 g/ha [1, 5]","pest or weed control at 140 g/ha [1, 5]","pest or weed control at 35 g/ha [1, 6]","pest or weed control at 70 g/ha [1, 6]","pest or weed control at 140 g/ha [1, 6]","pest or weed control at 35 g/ha [1, 7]","pest or weed control at 70 g/ha [1, 7]","pest or weed control at 140 g/ha [1, 7]","pest or weed control at 35 g/ha [1, 8]","pest or weed control at 70 g/ha [1, 8]","pest or weed control at 140 g/ha [1, 8]",activity when X is CF compared with X is CH (undesirable vegetation),"pest or weed control at 35 g/ha [2, 9]",further results
Nc1c(F)c(-c2ccc3cc[nH]c3c2)nc(C(=O)O)c1Cl [Compound 1.09],30 to 44%,75 to 84%,85 to 94%,95 to 100%,95 to 100%,95 to 100%,0 to 29%,0 to 29%,0 to 29%,85 to 94%,85 to 94%,85 to 94%,0 to 29%,0 to 29%,0 to 29%,60 to 74%,75 to 84%,75 to 84%,significant increase in activity,95 to 100%,"pest or weed control at 70 g/ha [2, 9]: 95 to 100%; pest or weed control at 140 g/ha [2, 9]: 95 to 100%; pest or weed control at 35 g/ha [2, 10]: 95 to 100%; pest or weed control at 70 g/ha [2, 10]: 95 to 100%; pest or weed control at 140 g/ha [2, 10]: 95 to 100%; pest or weed control at 35 g/ha [2, 11]: 95 to 100%; pest or weed control at 70 g/ha [2, 11]: 95 to 100%; pest or weed control at 140 g/ha [2, 11]: 95 to 100%; pest or weed control at 35 g/ha [2, 12]: 95 to 100%; pest or weed control at 70 g/ha [2, 12]: 95 to 100%; pest or weed control at 140 g/ha [2, 12]: 95 to 100%; pest or weed control at 35 g/ha [2, 13]: 85 to 94%; pest or weed control at 70 g/ha [2, 13]: 95 to 100%; pest or weed control at 140 g/ha [2, 13]: 95 to 100%; pest or weed control at 35 g/ha [2, 14]: 95 to 100%; pest or weed control at 70 g/ha [2, 14]: 95 to 100%; pest or weed control at 140 g/ha [2, 14]: 95 to 100%; melting point: 138 to 140 °C"
"Nc1c(F)c(-c2ccc3cc[nH]c3c2F)nc(C(=O)O)c1Cl [Compound 1.16, 4-Amino-3-chloro-5-fluoro-6-(7-fluoro-1H-indol-6-yl)picolinic acid]",0 to 29%,60 to 74%,85 to 94%,75 to 84%,85 to 94%,95 to 100%,30 to 44%,60 to 74%,60 to 74%,60 to 74%,75 to 84%,85 to 94%,30 to 44%,60 to 74%,60 to 74%,0 to 29%,30 to 44%,60 to 74%,significant increase in activity,85 to 94%,"pest or weed control at 70 g/ha [2, 9]: 95 to 100%; pest or weed control at 140 g/ha [2, 9]: 95 to 100%; pest or weed control at 35 g/ha [2, 10]: 95 to 100%; pest or weed control at 70 g/ha [2, 10]: 95 to 100%; pest or weed control at 140 g/ha [2, 10]: 95 to 100%; pest or weed control at 35 g/ha [2, 11]: 95 to 100%; pest or weed control at 70 g/ha [2, 11]: 95 to 100%; pest or weed control at 140 g/ha [2, 11]: 95 to 100%; pest or weed control at 35 g/ha [2, 12]: 95 to 100%; pest or weed control at 70 g/ha [2, 12]: 95 to 100%; pest or weed control at 140 g/ha [2, 12]: 95 to 100%; pest or weed control at 35 g/ha [2, 13]: 95 to 100%; pest or weed control at 70 g/ha [2, 13]: 95 to 100%; pest or weed control at 140 g/ha [2, 13]: 95 to 100%; pest or weed control at 35 g/ha [2, 14]: 95 to 100%; pest or weed control at 70 g/ha [2, 14]: 95 to 100%; pest or weed control at 140 g/ha [2, 14]: 85 to 94%"
"COC(=O)c1nc(-c2ccc3cc[nH]c3c2F)c(F)c(N)c1Cl [Compound 1.15, Methyl 4-amino-3-chloro-5-fluoro-6-(7-fluoro-1H-indol-6-yl)picolinate]",0 to 29%,60 to 74%,45 to 59%,75 to 84%,85 to 94%,95 to 100%,0 to 29%,0 to 29%,30 to 44%,60 to 74%,60 to 74%,85 to 94%,45 to 59%,60 to 74%,60 to 74%,0 to 29%,30 to 44%,60 to 74%,significant increase in activity,95 to 100%,"pest or weed control at 70 g/ha [2, 9]: 95 to 100%; pest or weed control at 140 g/ha [2, 9]: 95 to 100%; pest or weed control at 35 g/ha [2, 10]: 95 to 100%; pest or weed control at 70 g/ha [2, 10]: 95 to 100%; pest or weed control at 140 g/ha [2, 10]: 95 to 100%; pest or weed control at 35 g/ha [2, 11]: 75 to 84%; pest or weed control at 70 g/ha [2, 11]: 95 to 100%; pest or weed control at 140 g/ha [2, 11]: 95 to 100%; pest or weed control at 35 g/ha [2, 12]: 95 to 100%; pest or weed control at 70 g/ha [2, 12]: 95 to 100%; pest or weed control at 140 g/ha [2, 12]: 95 to 100%; pest or weed control at 35 g/ha [2, 13]: 95 to 100%; pest or weed control at 70 g/ha [2, 13]: 95 to 100%; pest or weed control at 140 g/ha [2, 13]: 95 to 100%; pest or weed control at 35 g/ha [2, 14]: 95 to 100%; pest or weed control at 70 g/ha [2, 14]: 95 to 100%; pest or weed control at 140 g/ha [2, 14]: 95 to 100%"
